Measurements: the NIST ThermoML archive (doi:10.1016/j.fluid.2018.08.017)

Legend:
[1] = refractive index (Na D-line) (dimensionless); settings: 101.33 kPa, Liquid, Standard Abbe refractometry
[2] = Liquid; for speed of sound: Single path-length method; for mass density: Vibrating tube method
[3] = wn = mass fraction of the nth substance listed; settings: 101 kPa, Liquid, w1 = 1; for speed of sound: Single path-length method; for mass density: Vibrating tube method

CCCCn1cc[n+](C)c1.F[B-](F)(F)F [1-butyl-3-methylimidazolium tetrafluoroborate]
Settings	refractive index
[1], 293.15 K	1.423

[2]
Settings	mass density, 101 kPa [kg/m3]	mass density, 101.33 kPa [kg/m3]	speed of sound, 101 kPa [m/s]	viscosity, 101 kPa [mPa·s]
293.15 K	1206	–	1576.7	129.34
298.15 K	1202.4	–	1564.7	98.95
303.15 K	1198.8	–	1552.8	77
308.15 K	1195.2	–	1541.2	60.9
313.15 K	1191.7	–	1529.6	49.2
318.15 K	1188.1	1188.2	1518.2	40.27
323.15 K	1184.6	–	1506.9	33.44
328.15 K	1181.1	–	1495.7	28.12
333.15 K	1177.6	–	1484.5	23.94
338.15 K	1174.2	–	1473.2	20.62
343.15 K	1170.7	–	1461.7	17.92

CCCCn1cc[n+](C)c1.F[B-](F)(F)F [1-butyl-3-methylimidazolium tetrafluoroborate] + CN1CCCC1=O
[3]
Settings	mass density [kg/m3]	speed of sound [m/s]	viscosity [mPa·s]
293.15 K	1206	1576.7	129.34
298.15 K	1202.4	1564.7	98.95
303.15 K	1198.8	1552.8	77
308.15 K	1195.2	1541.2	60.9
313.15 K	1191.7	1529.6	49.2
318.15 K	1188.1	1518.2	40.27
323.15 K	1184.6	1506.9	33.44
328.15 K	1181.1	1495.7	28.12
333.15 K	1177.6	1484.5	23.94
338.15 K	1174.2	1473.2	20.62
343.15 K	1170.7	1461.7	17.92

CN1CCCC1=O [N-methylpyrrolidone]
Settings	refractive index
[1], 298.15 K	1.469

[2], 101 kPa
Settings	mass density [kg/m3]	speed of sound [m/s]	viscosity [mPa·s]
293.15 K	1034.1	1565.7	1.786
298.15 K	1029.7	1546.1	1.693
303.15 K	1025.2	1526.7	1.564
308.15 K	1020.8	1507.5	1.448
313.15 K	1016.3	1488.3	1.346
318.15 K	1011.9	1469.2	1.258
323.15 K	1007.4	1450.4	1.176
328.15 K	1002.9	1431.4	1.103
333.15 K	998.4	1412.8	1.037
338.15 K	993.9	1394.4	0.9769
343.15 K	989.4	1376	0.923

CCCCCC [hexane]
Settings	refractive index
[1], 298.15 K	1.372

Settings	mass density [kg/m3]
[2], 313.15 K, 101.33 kPa	641.2
